Patent US7323494B2, “Compounds and methods” (SmithKline Beecham Corporation, priority 2002, dated 2008)

How the values were obtained:
[1] = target: T1, human LXRβ ligand binding domain (Homo sapiens, UniProt P55055); experiment: Ligand Sensing Assay (LiSA) for LXRβ agonist activity (SRC1 peptide recruitment); type: biochemical; conditions: 1 μM; over a background reading of 10000 fluorescence units
T1 construct: made in house; host or cells: E. coli BL21 (DE3), pRSETa
T1 sequence (P55055 184-460 limits assumed): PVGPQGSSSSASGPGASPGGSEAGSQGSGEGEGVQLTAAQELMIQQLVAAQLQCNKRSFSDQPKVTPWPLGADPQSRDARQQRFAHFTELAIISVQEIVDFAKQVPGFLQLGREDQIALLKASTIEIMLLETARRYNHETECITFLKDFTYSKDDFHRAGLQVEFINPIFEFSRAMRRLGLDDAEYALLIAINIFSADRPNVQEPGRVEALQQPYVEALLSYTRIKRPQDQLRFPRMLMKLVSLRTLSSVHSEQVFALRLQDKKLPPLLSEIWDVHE
T1 sequence (Q15788 676-700 partner limits assumed): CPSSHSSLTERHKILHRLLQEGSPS
Source text: Test Method 1: Ligand Sensing Assay (LiSA) for LXRβ Agonist Activity
This assay measures the recruitment of a peptide derived from the coactivator protein, SRC1, to the agonist-bound LXR[…]. Peptides derived from other nuclear receptor cofactors may be similarly prepared and assayed.
To generate the human LXRβ ligand binding domain suitable for LISA, a modified polyhistidine tag (MKKGHHHHHHG) (SEQ ID No. 1) was fused in frame to the human LXRβ ligand binding domain (amino acids 185-461 of Genbank accession number U07132) and subcloned into the expression vector pRSETa (Invitrogen) under the control of an IPTG inducible T7 promoter. The human LXRβ ligand binding domain was expressed in E. coli strain BL21 (DE3). Ten-liter fermentation batches were grown in Rich PO4 media with 0.1 mg/mL Ampicillin at 25° C. for 12 hours, cooled to […] and held at that temperature for 36 hours to a density of OD600=14. […]
Typically 25-50 g of cell paste is resuspended in 250-500 mL TBS, pH 8.0 (25 mM Tris, 150 mM NaCl). […] After washing to baseline absorbance with equilibration buffer, the column is washed with approximately one column volume of TBS pH-8.0 containing 95 mM imidazole. […] After washing to baseline absorbance with the dilution buffer the protein is eluted with a gradient from 50-500 mM NaCl. […]

[2] = target: T2, LXRα ligand binding domain (Homo sapiens, UniProt Q13133); experiment: Ligand Sensing Assay for LXRα agonist activity; type: biochemical; conditions: 1 μM; over a background reading of 10000 fluorescence units
T2 construct: His tag; made in house
T2 sequence (Q13133 183-447): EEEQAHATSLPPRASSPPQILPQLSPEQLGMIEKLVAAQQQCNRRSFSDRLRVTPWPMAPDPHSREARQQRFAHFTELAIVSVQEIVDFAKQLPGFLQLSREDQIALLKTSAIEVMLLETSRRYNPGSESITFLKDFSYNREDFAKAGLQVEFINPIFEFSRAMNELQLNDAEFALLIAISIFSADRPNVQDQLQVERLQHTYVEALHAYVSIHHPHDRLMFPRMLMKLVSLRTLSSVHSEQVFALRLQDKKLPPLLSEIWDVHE
T2 sequence (Q15788 676-700 partner): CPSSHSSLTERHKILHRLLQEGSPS
Experimental: Test Method 2: Ligand Sensing Assay for LXRα Agonist Activity
The assay for LXRα was run according to the procedures of Test Method 1, above using his-tagged LXRα ligand binding domain (amino acids 183-447 of Genbank accession number U22662, with the 14th amino acid corrected to A from R). In this assay 1 μM 24(S),25-epoxycholesterol gave a reading of 20000 fluorescence units over a background reading of 10000 fluorescence units.

SMILES: C[C@H](CC[C@@H]1OC1(C)C)[C@H]1CC[C@H]2[C@@H]3CC=C4C[C@@H](O)CC[C@]4(C)[C@H]3CC[C@]12C [24(S),25-epoxycholesterol]
- reading (fluorescence units) [1]: 20000 fluorescence units
- reading (fluorescence units) [2]: 20000 fluorescence units
